Common to all, as to test: relative viability (nuclei count vs DMSO), 5 days (fraction); higher = more cells survive
Compound in assay [1]: Cc1cnc(Nc2ccc(OCCN3CCCC3)cc2)nc1Nc1cccc(S(=O)(=O)NC(C)(C)C)c1 [Fedratinib]
An outline of the steps:
(§1)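 Hoechst staining, done together with fixation and permeabilisation, marked nuclei for 4× imaging and MetaXpress counting. This followed 5 days without medium change after lung cancer cell lines, kept overnight at 37 °C in 1536-well plates, were pinned with five library-drug doses (not always all listed) spaced by √10 on vehicle-anchored plates. Viability is the ratio of treated-well to vehicle-well nuclei, expressed as a median across plates. Plates passed only at control CV below 25% with at least one doubling.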

Compound in assay [2]: COC1=CC=C(C=C1)COC2=C(C=C(C=C2)CC3=CN=C(N=C3N)N)OC [GW-2580]
An outline of the steps: as §1

Compound in assay [3]: COC1=CC=C(C=C1)COC2=C(C=C(C=C2)CC3=CN=C(N=C3N)N)OC [GW-2580] + CC(C)C[C@H](NC(=O)[C@H](Cc1ccccc1)NC(=O)c1cnccn1)B(O)O [Bortezomib] (partner 0.002 µM)
An outline of the steps: (§2)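 Cells from lung cancer lines were seeded into 1536-well plates and, one day later, dosed by pin tool. Treatments were either a single drug or a fixed dose of an anchor drug with five library-drug doses (not always all listed) in √10 steps. After 5 days, nuclei were stained in a one-step fixation (final 0.05% Triton X-100, 1% formaldehyde, 1 ug/ml Hoechst) and counted on 4× images, and relative viability is the treated-to-vehicle nuclei ratio, as the median of duplicate plates.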

Compound in assay [4]: COC1=CC=C(C=C1)COC2=C(C=C(C=C2)CC3=CN=C(N=C3N)N)OC [GW-2580] + Nc1nc2[nH]cc(CCc3ccc(C(=O)N[C@@H](CCC(=O)O)C(=O)O)cc3)c2c(=O)[nH]1 [Pemetrexed] (partner 0.2 µM)
The procedure, abridged: as §2

In the case of HCC-827, the relative viability in assay [1] (0.1 µM) stood at 1.07; in assay [1] (0.3162 µM), 1.01; in assay [1] (1 µM), 1.03; in assay [2] (0.08 µM), 1.06; in assay [2] (0.8 µM), 1.05; in assay [2] (2.53 µM) it was 1.04. Further, the relative viability worked out at 0.965 in assay [2] (8 µM); 0.964 in assay [3] (first compound 0.08 µM); 1.12 in assay [3] (first compound 0.8 µM); 1.01 in assay [3] (first compound 2.53 µM); 0.952 in assay [3] (first compound 8 µM); 0.242 in assay [4] (first compound 0.08 µM). The values for the relative viability in assay [4] (first compound 0.8 µM), in assay [4] (first compound 2.53 µM) and in assay [4] (first compound 8 µM) were 0.259, 0.236 and 0.276, respectively.

For HOP-62, the relative viability in assay [1] (0.1 µM) was 1.01; in assay [1] (0.3162 µM) it was 0.907; in assay [1] (1 µM), 0.987; in assay [2] (0.08 µM), 1.06; in assay [2] (0.8 µM), 1.12; in assay [2] (2.53 µM) it was 0.982. For the same cell line, the relative viability in assay [2] (8 µM) worked out at 1.03; in assay [3] (first compound 0.08 µM), 1.13; in assay [3] (first compound 0.8 µM), 0.861; in assay [3] (first compound 2.53 µM), 0.406; in assay [3] (first compound 8 µM), 0.727; in assay [4] (first compound 0.08 µM), 0.394. For the same cell line, the values for the relative viability in assay [4] (first compound 0.8 µM), in assay [4] (first compound 2.53 µM) and in assay [4] (first compound 8 µM) were 0.285, 0.303 and 0.288, respectively.

In the case of LC-2-ad, the relative viability in assay [1] (0.1 µM) came to 0.983; in assay [1] (0.3162 µM), 1.03; in assay [1] (1 µM), 0.588; in assay [2] (0.08 µM) it was 1.04; in assay [2] (0.8 µM), 1.14; in assay [2] (2.53 µM), 1.01. The relative viability was determined as 0.988 in assay [2] (8 µM); 1.05 in assay [3] (first compound 0.08 µM); 1.08 in assay [3] (first compound 0.8 µM); 0.922 in assay [3] (first compound 2.53 µM); 1.08 in assay [3] (first compound 8 µM); 0.268 in assay [4] (first compound 0.08 µM). For the same cell line, the values for the relative viability in assay [4] (first compound 0.8 µM), in assay [4] (first compound 2.53 µM) and in assay [4] (first compound 8 µM) were 0.285, 0.253 and 0.278, respectively.

As for LCLC-97TM1, the relative viability in assay [1] (0.1 µM) is 1.05; in assay [1] (0.3162 µM) it was 1.02; in assay [1] (1 µM), 0.778; in assay [2] (0.08 µM) it was 0.972; in assay [2] (0.8 µM) it was 1.07; in assay [2] (2.53 µM) it was 0.848. In addition, the relative viability came to 1.03 in assay [2] (8 µM); 0.404 in assay [3] (first compound 0.08 µM); 1.02 in assay [3] (first compound 0.8 µM); 0.288 in assay [3] (first compound 2.53 µM); 0.982 in assay [3] (first compound 8 µM); 0.158 in assay [4] (first compound 0.08 µM). Besides, the relative viability in assay [4] (first compound 0.8 µM) worked out at 0.143; in assay [4] (first compound 2.53 µM), 0.179; in assay [4] (first compound 8 µM) it was 0.172.

In the case of LCLC-103H, the relative viability in assay [1] (0.1 µM) is 0.952; in assay [1] (0.3162 µM), 1; in assay [1] (1 µM) it was 0.932; in assay [2] (0.08 µM) it was 0.999; in assay [2] (0.8 µM), 0.909; in assay [2] (2.53 µM), 0.977. In addition, the relative viability is 0.927 in assay [2] (8 µM); 1.28 in assay [3] (first compound 0.08 µM); 1.11 in assay [3] (first compound 0.8 µM); 1.03 in assay [3] (first compound 2.53 µM); 0.96 in assay [3] (first compound 8 µM); 0.452 in assay [4] (first compound 0.08 µM). Also, the relative viability in assay [4] (first compound 0.8 µM) came to 0.416; in assay [4] (first compound 2.53 µM), 0.447; in assay [4] (first compound 8 µM), 0.5.

For the cell line LOU-NH91, the relative viability in assay [1] (0.1 µM) stood at 0.893; in assay [1] (0.3162 µM) it was 1.08; in assay [1] (1 µM), 0.723; in assay [2] (0.08 µM) it was 0.987; in assay [2] (0.8 µM), 1.05; in assay [2] (2.53 µM), 0.843. Besides, the relative viability in assay [2] (8 µM) came out at 0.973; in assay [3] (first compound 0.08 µM) it was 0.522; in assay [3] (first compound 0.8 µM), 0.534; in assay [3] (first compound 2.53 µM), 0.468; in assay [3] (first compound 8 µM), 0.46; in assay [4] (first compound 0.08 µM), 0.349. For the same cell line, the figures for the relative viability in assay [4] (first compound 0.8 µM), in assay [4] (first compound 2.53 µM) and in assay [4] (first compound 8 µM) were 0.381, 0.399 and 0.412, respectively.

For the cell line LU99A, the relative viability is 0.969 in assay [1] (0.1 µM); 0.934 in assay [1] (0.3162 µM); 0.924 in assay [1] (1 µM); 0.991 in assay [2] (0.08 µM); 0.875 in assay [2] (0.8 µM); 0.949 in assay [2] (2.53 µM). The relative viability turned out to be 0.916 in assay [2] (8 µM); 1.1 in assay [3] (first compound 0.08 µM); 1.15 in assay [3] (first compound 0.8 µM); 0.986 in assay [3] (first compound 2.53 µM); 1.17 in assay [3] (first compound 8 µM); 0.246 in assay [4] (first compound 0.08 µM). For the same cell line, the relative viability in assay [4] (first compound 0.8 µM) amounted to 0.176; in assay [4] (first compound 2.53 µM), 0.193; in assay [4] (first compound 8 µM), 0.17.

Turning to LXF-289, the relative viability in assay [1] (0.1 µM) was 0.978; in assay [1] (0.3162 µM), 0.997; in assay [1] (1 µM), 0.974; in assay [2] (0.08 µM), 1.03; in assay [2] (0.8 µM), 1.08; in assay [2] (2.53 µM) it was 0.988. Besides, the relative viability in assay [2] (8 µM) was 0.937; in assay [3] (first compound 0.08 µM) it was 1; in assay [3] (first compound 0.8 µM), 1.06; in assay [3] (first compound 2.53 µM), 0.93; in assay [3] (first compound 8 µM), 0.916; in assay [4] (first compound 0.08 µM) it was 0.883. The figures for the relative viability in assay [4] (first compound 0.8 µM), in assay [4] (first compound 2.53 µM) and in assay [4] (first compound 8 µM) were 0.96, 0.881 and 0.85, respectively.

Regarding NCI-H23, the relative viability was 1.01 in assay [1] (0.1 µM); 0.908 in assay [1] (0.3162 µM); 0.597 in assay [1] (1 µM); 1.03 in assay [2] (0.08 µM); 1.11 in assay [2] (0.8 µM); 0.983 in assay [2] (2.53 µM). Further, the relative viability in assay [2] (8 µM) amounted to 0.99; in assay [3] (first compound 0.08 µM), 0.979; in assay [3] (first compound 0.8 µM), 0.988; in assay [3] (first compound 2.53 µM), 1.12; in assay [3] (first compound 8 µM), 1.04; in assay [4] (first compound 0.08 µM), 0.581. Besides, the relative viability in assay [4] (first compound 0.8 µM) is 0.869; in assay [4] (first compound 2.53 µM) it was 0.777; in assay [4] (first compound 8 µM), 0.492.

For the cell line NCI-H322M, the relative viability in assay [1] (0.1 µM) was found to be 0.873; in assay [1] (0.3162 µM), 1; in assay [1] (1 µM), 0.678; in assay [2] (0.08 µM), 0.941; in assay [2] (0.8 µM), 1.1; in assay [2] (2.53 µM), 0.971. Further, the relative viability in assay [2] (8 µM) worked out at 0.946; in assay [3] (first compound 0.08 µM), 1.29; in assay [3] (first compound 0.8 µM), 1.4; in assay [3] (first compound 2.53 µM), 1.31; in assay [3] (first compound 8 µM), 1.43; in assay [4] (first compound 0.08 µM), 0.582. The relative viability in assay [4] (first compound 0.8 µM) was found to be 0.626; in assay [4] (first compound 2.53 µM), 0.676; in assay [4] (first compound 8 µM), 0.567.

(Values after the supplement of paper PMC10307832.)
